The assay is described as follows: M. tuberculosis H37Rv growth inhibition, dose response, strain H37Rv (AID 489010). The note with it: M. tuberculosis H37Rv growth inhibition; at 100 µM (top of the series).

“And” between values parts separate entries of the source, which are not always exact repeats. Equal values may be shown once. The source made the active and inactive calls. How the calls were made is not given here.

`O=C1CC(CSc2ccc(Cl)cc2)=NN1`: the growth inhibition was -0.64% (inactive). In the case of `N#CC1=C(N)Oc2n[nH]c(-c3ccccc3)c2C1c1ccsc1` (configuration not stated), the growth inhibition is 7.24% (inactive). Next, `Cc1cc(-c2[nH]nc3c2C(c2ccsc2)C(C#N)=C(N)O3)c(C)s1` (configuration not stated): 3.11% (inactive); `Cc1ccc(-c2cc(=O)[nH][nH]2)c(C)c1`: 1.66% (inactive); `CCOC(=O)C1CCN(C(=O)c2c(C)oc3c2C(=O)c2ccccc2C3=O)CC1`: 27.9% (inactive). Take `CCOc1ccc(-c2[nH]nc3c2C(c2ccc(O)cc2)C(C#N)=C(N)O3)cc1` (configuration not stated): the growth inhibition is -1.9% (inactive). For `O=C(Cc1cc(=O)[nH][nH]1)N/N=C/c1cccc(Cl)c1Cl`, the growth inhibition was -0.74% (inactive) and -0.13% (inactive). On to `O=c1cc(-c2ccc(Br)cc2)[nH][nH]1`, for which the growth inhibition is -4.27% (inactive). To `O=C(CSCc1cc(=O)[nH][nH]1)Nc1ccc(F)cc1` belongs 0.76% (inactive); to `CC1(C)N=C(SCC(=O)Nc2ccc(Cl)cc2)C(c2ccc(Cl)cc2)=N1`, 2.13% (inactive). As to `N#Cc1ccc(-n2c(-c3ccccc3)nnc2-c2ccccc2)cc1C#N`, the growth inhibition was 6.39% (inactive). With `O=C(Cc1cc(=O)[nH][nH]1)N/N=C/c1c(F)cccc1Cl`, the growth inhibition was 1.68% (inactive).

In the case of `COc1ccc(-c2[nH]nc3c2C(c2ccoc2)C(C#N)=C(N)O3)cc1` (configuration not stated), the growth inhibition is -0.09% (inactive). Take `Cc1ccsc1/C=N/NC(=O)Cc1cc(=O)[nH][nH]1`: the growth inhibition was -3.09% (inactive).

Consider `CCCCCCOC(=O)c1ccc(OC(=O)c2cccnc2)cc1`, for which the growth inhibition is 26.1% (inactive). For `Cc1ccc(O)c(N=CC2=C(O)c3ccccc3C2=O)c1`, the growth inhibition was 9.56% (inactive). `CC(=O)N1CCC2(CC1)C(C#N)=C(N)Oc1n[nH]c(CSc3ccc(C)cc3)c12`: the growth inhibition was 1.12% (inactive). As for `COc1ccc(N(C(=O)COc2cccc(C)c2)S(=O)(=O)c2ccc(C)cc2)cc1`, the growth inhibition was 16.3% (inactive).

`COc1cccc(-c2[nH]nc3c2C(c2ccsc2)C(C#N)=C(N)O3)c1` (configuration not stated): the growth inhibition was 5.86% (inactive). Consider `Cc1ccc(SCc2[nH]nc3c2C2(CCSCC2)C(C#N)=C(N)O3)cc1`, for which the growth inhibition is 6.38% (inactive). As to `O=C(CCCN1C(=O)/C(=C/c2cccs2)SC1=S)Nc1ccc(O)cc1`, the growth inhibition is 21.9% (inactive). Regarding `O=C(CSc1nnc(-c2ccccc2Cl)o1)Oc1ccc(Br)cc1`, the growth inhibition is 0.13% (inactive).

As for `Cc1nc2ccccc2c2c1C(=O)N(C)C2=O`, the growth inhibition was -4.82% (inactive). Next, `COC(=O)C(C#N)C(c1cccnc1)c1c(C)[nH][nH]c1=O` (configuration not stated): -0.4% (inactive); `O=C1NC2=C(CCc3ccccc32)C(c2ccccc2)N1` (configuration not stated): 1.42% (inactive). To `Cc1nn(C)c(C)c1C1C(C#N)=C(N)Oc2n[nH]c(C)c21` (configuration not stated) belongs 2.21% (inactive); to `N#CC1=C(N)Oc2n[nH]c(-c3cccs3)c2C1c1cccs1` (configuration not stated), -0.42% (inactive); to `CC(=O)N(C1CC(C)C(C#N)(C#N)C1(C#N)C#N)N(C)C` (configuration not stated), -7.63% (inactive).

`CCCc1[nH]nc2c1C(c1ccoc1)C(C#N)=C(N)O2` (configuration not stated): the growth inhibition is 1.3% (inactive).

For `O=C(Cc1cc(=O)[nH][nH]1)N/N=C/c1cccc2ccccc12`, the growth inhibition was 0.57% (inactive). Turning to `CC(C)CCn1c(N)c(C(=O)NCc2cccs2)c2nc3ccccc3nc21`, the growth inhibition was -0.29% (inactive). `Cc1ccc(-c2[nH]nc3c2C(c2ccc(OC(=O)N4CCOCC4)cc2)C(C#N)=C(N)O3)cc1` (configuration not stated): the growth inhibition was 3.59% (inactive).

Consider `CCCc1c(-c2ccc(O)cc2)nn(-c2ccc(O)cc2)c1-c1ccc(O)cc1`, for which the growth inhibition was 6.41% (inactive). Regarding `COc1ccc(/C=C2/C(=O)N(c3ccccc3)N=C2C)c(OC)c1`, the growth inhibition was 4.59% (inactive).

Consider `N#CC1=C(N)Oc2n[nH]c(-c3cccs3)c2C1c1ccsc1` (configuration not stated), for which the growth inhibition is 2.91% (inactive).

On to `CCOC(=O)C/C(C)=N/NC(=O)COc1ccccc1C`, for which the growth inhibition was 2.99% (inactive).

Turning to `N#CC1=C(N)Oc2n[nH]c(-c3cccs3)c2C1c1ccccc1C(=O)O` (configuration not stated), the growth inhibition was 10.2% (inactive).
